Like-named read-outs stand apart in the source and are kept apart here.
What was measured:
[1] = tested on: recombinant NL4-3 virus (nef section replaced with Renilla luciferase gene) in MT-2 cells; experiment: HIV cell culture assay (antiviral activity, luciferase readout); type: cell-based; settings: Renilla, NL43, MT-2 cells infected for 4-5 days with recombinant NL4-3 Renilla luciferase virus
Method in brief: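 EC50 was derived by median-effect fitting of Renilla luciferase signal from MT-2 cells. These cells were infected for 4–5 days with NL4-3 reporter virus (nef partly replaced by luciferase; made in 293T cells) in the presence of serially diluted compound. Activity was quantified with a live-cell luciferase substrate.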

[2] = Compound cytotoxicity, XTT-based colorimetric assay; type: cell-based; settings: human
Method in brief: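 Cells seeded as for the antiviral assay but left uninfected (MT2). Compound exposure continued to day 4. XTT reagent added and colour read. CC50 calculated.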

[3] = uninfected MT2 cells, day 4, XTT, read-out: CC50

SMILES	EC50 [1]	CC50 at 4 days [2, 3]	CC50 at 4 days [2]
CS(=O)(=O)Nc1nn(CCN2CCC(F)(F)C2)c2c(-n3c([C@H](Cc4cc(F)cc(F)c4)NC(=O)Cn4nc(C5CC5)c5c4C[C@@H]4C[C@H]54)nc4nc(C5CCC(F)(F)CC5)ccc4c3=O)ccc(Cl)c12 (atropisomer, axis not shown; (P)) [Example 24, N-[(1S)-1-[(3P)-3-{4-chloro-1-[2-(3,3-difluoropyrrolidin-1-yl)ethyl]-3-methanesulfonamido-1H-indazol-7-yl}-7-(4,4-difluorocyclohexyl)-4-oxo-3H,4H-pyrido[2,3-d]pyrimidin-2-yl]-2-(3,5-difluorophenyl)ethyl]-2-[(2S,4S)-9-cyclopropyl-7,8-diazatricyclo[4.3.0.0^2,^4]nona-1(6),8-dien-7-yl]acetamide]	0.007 nM	> 50 nM	
CO[C@H]1CCN(CCn2nc(NS(C)(=O)=O)c3c(Cl)ccc(-n4c([C@H](Cc5cc(F)cc(F)c5)NC(=O)Cn5nc(C(F)F)c6c5C(F)(F)[C@@H]5C[C@H]65)nc5nc(C6CCC(F)(F)CC6)cc(C(F)F)c5c4=O)c32)C1 (atropisomer, axis not shown; (P)) [Example 257, N-[(1S)-1-[(3P)-3-(4-chloro-3-methanesulfonamido-1-{2-[(3S)-3-methoxypyrrolidin-1-yl]ethyl}-1H-indazol-7-yl)-7-(4,4-difluorocyclohexyl)-5-(difluoromethyl)-4-oxo-3H,4H-pyrido[2,3-d]pyrimidin-2-yl]-2-(3,5-difluorophenyl)ethyl]-2-[(2S,4R)-9-(difluoromethyl)-5,5-difluoro-7,8-diazatricyclo[4.3.0.0^2,^4]nona-1(6),8-dien-7-yl]acetamide]	0.027 nM	> 50 nM	
Cc1cc(C2CCC(F)(F)CC2)nc2nc([C@H](Cc3cc(F)cc(F)c3)NC(=O)Cn3nc(C4CC4)c4c3C[C@@H]3C[C@H]43)n(-c3ccc(Cl)c4c(NS(C)(=O)=O)nn(CCN5C[C@@H](F)[C@@H](F)C5)c34)c(=O)c12 (atropisomer, axis not shown; (P)) [Example 281, N-[(1S)-1-[(3P)-3-(4-chloro-1-{2-[(3R,4S)-3,4-difluoropyrrolidin-1-yl]ethyl}-3-methanesulfonamido-1H-indazol-7-yl)-7-(4,4-difluorocyclohexyl)-5-methyl-4-oxo-3H,4H-pyrido[2,3-d]pyrimidin-2-yl]-2-(3,5-difluorophenyl)ethyl]-2-[(2S,4S)-9-cyclopropyl-7,8-diazatricyclo[4.3.0.0^2,^4]nona-1(6),8-dien-7-yl]acetamide]	0.011 nM	> 50 nM	
COCCCn1nc(NS(C)(=O)=O)c2c(Cl)ccc(-n3c([C@H](Cc4cc(F)cc(F)c4)NC(=O)Cn4nc(C(F)F)c5c4C(F)(F)[C@@H]4C[C@H]54)nc4nc(C5CCC(F)(F)CC5)cc(NCCN5CCC5)c4c3=O)c21 (atropisomer, axis not shown; (P)) [Example 500, N-[(1S)-1-[(3P)-5-{[2-(azetidin-1-yl)ethyl]amino}-3-[4-chloro-3-methanesulfonamido-1-(3-methoxypropyl)-1H-indazol-7-yl]-7-(4,4-difluorocyclohexyl)-4-oxo-3H,4H-pyrido[2,3-d]pyrimidin-2-yl]-2-(3,5-difluorophenyl)ethyl]-2-[(2S,4R)-9-(difluoromethyl)-5,5-difluoro-7,8-diazatricyclo[4.3.0.0^2,^4]nona-1(6),8-dien-7-yl]acetamide]	0.049 nM	> 20 nM	
COCCCn1nc(NS(C)(=O)=O)c2c(Cl)ccc(-n3c([C@H](Cc4cc(F)cc(F)c4)NC(=O)Cn4nc(C(F)F)c5c4C(F)(F)[C@@H]4C[C@H]54)nc4nc(C5CCC(F)(F)CC5)cc(CN5CC(C(F)(F)F)C5)c4c3=O)c21 (atropisomer, axis not shown; (P)) [Example 605, N-[(1S)-1-[(3P)-3-[4-chloro-3-methanesulfonamido-1-(3-methoxypropyl)-1H-indazol-7-yl]-7-(4,4-difluorocyclohexyl)-4-oxo-5-{[3-(trifluoromethyl)azetidin-1-yl]methyl}-3H,4H-pyrido[2,3-d]pyrimidin-2-yl]-2-(3,5-difluorophenyl)ethyl]-2-[(2S,4R)-9-(difluoromethyl)-5,5-difluoro-7,8-diazatricyclo[4.3.0.0^2,^4]nona-1(6),8-dien-7-yl]acetamide]	0.018 nM	> 20 nM	
Cc1cc(C2(F)CCC(F)(F)CC2)nc2nc([C@H](Cc3cc(F)cc(F)c3)NC(=O)Cn3nc(C4CC4)c4c3C[C@@H]3C[C@H]43)n(-c3ccc(Cl)c4c(NS(C)(=O)=O)nn(CCN5CC6CC(C5)O6)c34)c(=O)c12 [Example 591, N-[(1S)-1-[(3P)-3-[4-chloro-3-methanesulfonamido-1-(2-{6-oxa-3-azabicyclo[3.1.1]heptan-3-yl}ethyl)-1H-indazol-7-yl]-5-methyl-4-oxo-7-(1,4,4-trifluorocyclohexyl)-3H,4H-pyrido[2,3-d]pyrimidin-2-yl]-2-(3,5-difluorophenyl)ethyl]-2-[(2S,4S)-9-cyclopropyl-7,8-diazatricyclo[4.3.0.0^2,^4]nona-1(6),8-dien-7-yl]acetamide]	0.006 nM		> 20 nM
COCCn1nc(NS(C)(=O)=O)c2c(Cl)ccc(-n3c([C@H](Cc4cc(F)cc(F)c4)NC(=O)Cn4nc(C(F)F)c5c4C(F)(F)[C@@H]4C[C@H]54)nc4nc(C5CCC(F)(F)CC5)cc(C)c4c3=O)c21 (atropisomer, axis not shown; (P)) [Example 84, N-[(1S)-1-[(3P)-3-[4-chloro-3-methanesulfonamido-1-(2-methoxyethyl)-1H-indazol-7-yl]-7-(4,4-difluorocyclohexyl)-5-methyl-4-oxo-3H,4H-pyrido[2,3-d]pyrimidin-2-yl]-2-(3,5-difluorophenyl)ethyl]-2-[(2S,4R)-9-(difluoromethyl)-5,5-difluoro-7,8-diazatricyclo[4.3.0.0^2,^4]nona-1(6),8-dien-7-yl]acetamide]	0.016 nM	> 50 nM	
CS(=O)(=O)Nc1nn(CCN2CC(C(F)F)C2)c2c(-n3c([C@H](Cc4cc(F)cc(F)c4)NC(=O)Cn4nc(C(F)F)c5c4C(F)(F)[C@@H]4C[C@H]54)nc4nc(C5CCC(F)(F)CC5)ccc4c3=O)ccc(Cl)c12 (atropisomer, axis not shown; (P)) [Example 160, N-[(1S)-1-[(3P)-3-(4-chloro-1-{2-[3-(difluoromethyl)azetidin-1-yl]ethyl}-3-methanesulfonamido-1H-indazol-7-yl)-7-(4,4-difluorocyclohexyl)-4-oxo-3H,4H-pyrido[2,3-d]pyrimidin-2-yl]-2-(3,5-difluorophenyl)ethyl]-2-[(2S,4R)-9-(difluoromethyl)-5,5-difluoro-7,8-diazatricyclo[4.3.0.0^2,^4]nona-1(6),8-dien-7-yl]acetamide]	0.023 nM	> 50 nM	
COCCCn1nc(NS(C)(=O)=O)c2c(Cl)ccc(-n3c([C@H](Cc4cc(F)cc(F)c4)NC(=O)Cn4nc(C5CC5)c5c4C[C@@H]4C[C@H]54)nc4nc(C5CCC(F)(F)CC5)cc(CN5C[C@@H](C)O[C@@H](C)C5)c4c3=O)c21 (atropisomer, axis not shown; (P)) [Example 599, N-[(1S)-1-[(3P)-3-[4-chloro-3-methanesulfonamido-1-(3-methoxypropyl)-1H-indazol-7-yl]-7-(4,4-difluorocyclohexyl)-5-{[(2R,6S)-2,6-dimethylmorpholin-4-yl]methyl}-4-oxo-3H,4H-pyrido[2,3-d]pyrimidin-2-yl]-2-(3,5-difluorophenyl)ethyl]-2-[(2S,4S)-9-cyclopropyl-7,8-diazatricyclo[4.3.0.0^2,^4]nona-1(6),8-dien-7-yl]acetamide]	0.007 nM	> 20 nM	
C[C@@H]1CN(Cc2cc(C3CCC(F)(F)CC3)nc3nc([C@H](Cc4cc(F)cc(F)c4)NC(=O)Cn4nc(C(F)F)c5c4C(F)(F)[C@@H]4C[C@H]54)n(-c4ccc(Cl)c5c(NS(C)(=O)=O)nn(CCN6CC(C)(C)OC(C)(C)C6)c45)c(=O)c23)C[C@H](C)O1 (atropisomer, axis not shown; (P)) [Example 529, N-[(1S)-1-[(3P)-3-{4-chloro-3-methanesulfonamido-1-[2-(2,2,6,6-tetramethylmorpholin-4-yl)ethyl]-1H-indazol-7-yl}-7-(4,4-difluorocyclohexyl)-5-{[(2R,6S)-2,6-dimethylmorpholin-4-yl]methyl}-4-oxo-3H,4H-pyrido[2,3-d]pyrimidin-2-yl]-2-(3,5-difluorophenyl)ethyl]-2-[(2S,4R)-9-(difluoromethyl)-5,5-difluoro-7,8-diazatricyclo[4.3.0.0^2,4]nona-1(6),8-dien-7-yl]acetamide]	0.017 nM	> 1000 nM	
COCCCn1nc(NS(C)(=O)=O)c2c(Cl)ccc(-n3c([C@H](Cc4cc(F)cc(F)c4)NC(=O)Cn4nc(C(F)(F)F)c5c4C[C@@H]4C[C@H]54)nc4nc(C5CCC(F)(F)CC5)cc(C)c4c3=O)c21 (atropisomer, axis not shown; (P)) [Example 88, N-[(1S)-1-[(3P)-3-[4-chloro-3-methanesulfonamido-1-(3-methoxypropyl)-1H-indazol-7-yl]-7-(4,4-difluorocyclohexyl)-5-methyl-4-oxo-3H,4H-pyrido[2,3-d]pyrimidin-2-yl]-2-(3,5-difluorophenyl)ethyl]-2-[(2S,4S)-9-(trifluoromethyl)-7,8-diazatricyclo[4.3.0.0^2,^4]nona-1(6),8-dien-7-yl]acetamide]	0.021 nM	> 50 nM	
